The target of one test is T1, KRAS G12D (Homo sapiens, UniProt P01116, G12D).
T1 construct: aa1-188 KRAS WT, HRAS WT, NRAS WT, or KRAS containing the G12D
Put plainly: HTRF nucleotide exchange assay, KRAS G12D. It is filed as biochemical. Particulars: class symbols; for IC50: HTRF nucleotide exchange assay (NEA).

For another test, the target named is T2, KRAS WT (Homo sapiens, UniProt P01116).
T2 construct: aa1-188 KRAS WT
The test is described as follows: HTRF nucleotide exchange assay, KRAS WT. It is filed as biochemical. Particulars: class symbols; for IC50: HTRF nucleotide exchange assay (NEA). Background: TR-FRET usually uses a lanthanide donor and a delayed reading to cut background.

Usually IC50 stands for the concentration needed to halve the response being measured. Read a low IC50 as inhibition by little substance.

`CCc1c(F)ccc2cc(O)cc(-c3c(C)c4nc(OC[C@@]56CCCN5C[C@H](F)C6)nc(N5CCCn6nc(C(=O)N(C)C)cc6C5)c4c4cn(C)nc34)c12` [Example 80, 5-[4-(8-ethyl-7-fluoro-3-hydroxy-1-naphthyl)-2,5-dimethyl-7-[[(2R,8S)-2-fluoro-1,2,3,5,6,7-hexahydropyrrolizin-8-yl]methoxy]pyrazolo[4,3-f]quinazolin-9-yl]-N,N-dimethyl-4,6,7,8-tetrahydropyrazolo[1,5-a][1,4]diazepine-2-carboxamide]: the IC50 against KRAS G12D and on KRAS WT was at most 10 nM in each case.
With `CN(C)C(=O)c1cc2n(n1)CCCN(c1nc(OC[C@@]34CCCN3C[C@H](F)C4)nc3cc(-c4ccc(F)c5sc(N)c(C#N)c45)c4nn(C)cc4c13)C2` [Example 81, 5-[4-(2-amino-3-cyano-7-fluoro-benzothiophen-4-yl)-7-[[(2R,8S)-2-fluoro-1,2,3,5,6,7-hexahydropyrrolizin-8-yl]methoxy]-2-methyl-pyrazolo[4,3-f]quinazolin-9-yl]-N,N-dimethyl-4,6,7,8-tetrahydropyrazolo[1,5-a][1,4]diazepine-2-carboxamide], the figures for the IC50 against KRAS G12D and at KRAS WT were at most 10 nM and 10 to 100 nM, respectively.
On to `CCc1c(F)ccc2c(F)c(O)cc(-c3cc4nc(OC[C@@]56CCCN5C[C@H](F)C6)nc(N5CCCn6nc(C(=O)N(C)C)cc6C5)c4c4cn(C)nc34)c12` [Example 82, 5-[4-(8-ethyl-4,7-difluoro-3-hydroxy-1-naphthyl)-2-methyl-7-[[(2R,8S)-2-fluoro-1,2,3,5,6,7-hexahydropyrrolizin-8-yl]methoxy]pyrazolo[4,3-f]quinazolin-9-yl]-N,N-dimethyl-4,6,7,8-tetrahydropyrazolo[1,5-a][1,4]diazepine-2-carboxamide], for which the IC50 on KRAS G12D and on KRAS WT was at most 10 nM throughout.
Regarding `CN(C)C(=O)c1cc2n(n1)CCCN(c1nc(OC[C@@]34CCCN3C[C@H](F)C4)nc3cc(-c4cccc5[nH]nc(C#N)c45)c4nn(C)cc4c13)C2` [Example 83, 5-[4-(3-cyano-1H-indazol-4-yl)-2-methyl-7-[[(2R,8S)-2-fluoro-1,2,3,5,6,7-hexahydropyrrolizin-8-yl]methoxy]pyrazolo[4,3-f]quinazolin-9-yl]-N,N-dimethyl-4,6,7,8-tetrahydropyrazolo[1,5-a][1,4]diazepine-2-carboxamide], at KRAS G12D, the “KRAS^G12D NEA” value is recorded as “D (<49% inhibition at 10 μM)”. Moreover, the “KRAS^WT NEA” value at KRAS WT is “D (<49% inhibition at 10 μM)”.
Consider `Cc1cc2[nH]ncc2c(-c2cc3nc(OC[C@@]45CCCN4C[C@H](F)C5)nc(N4CCCn5nc(C(=O)N(C)C)cc5C4)c3c3cn(C)nc23)c1C(F)(F)F` [Example 84, 5-[7-[[(2R,8S)-2-fluoro-1,2,3,5,6,7-hexahydropyrrolizin-8-yl]methoxy]-2-methyl-4-[6-methyl-5-(trifluoromethyl)-1H-indazol-4-yl]pyrazolo[4,3-f]quinazolin-9-yl]-N,N-dimethyl-4,6,7,8-tetrahydropyrazolo[1,5-a][1,4]diazepine-2-carboxamide], for which the IC50 was at most 10 nM against KRAS G12D and 10 to 100 nM against KRAS WT.
On KRAS G12D, `Cn1cc2c(n1)c(-c1cccc3sc(N)c(C#N)c13)cc1nc(OC[C@@]34CCCN3C[C@H](F)C4)nc(N3CC4CCC(C3)N4)c12` [Example 86, 2-amino-4-[9-(3,8-diazabicyclo[3.2.1]octan-3-yl)-7-[[(2R,8S)-2-fluoro-1,2,3,5,6,7-hexahydropyrrolizin-8-yl]methoxy]-2-methyl-pyrazolo[4,3-f]quinazolin-4-yl]benzothiophene-3-carbonitrile] returned an IC50 of at most 10 nM. In addition, the “KRAS^WT NEA” value at KRAS WT was “D (<49% inhibition at 10 μM)”.
Take `CCc1c(F)ccc2cc(O)cc(-c3c(F)c4nc(OC[C@@]56CCCN5C[C@H](F)C6)nc(N5CCCn6nc(C(=O)N(C)C)cc6C5)c4c4cn(C)nc34)c12` [Example 87, 5-[4-(8-ethyl-7-fluoro-3-hydroxy-1-naphthyl)-5-fluoro-2-methyl-7-[[(2R,8S)-2-fluoro-1,2,3,5,6,7-hexahydropyrrolizin-8-yl]methoxy]pyrazolo[4,3-f]quinazolin-9-yl]-N,N-dimethyl-4,6,7,8-tetrahydropyrazolo[1,5-a][1,4]diazepine-2-carboxamide]: the IC50 on KRAS G12D and at KRAS WT was at most 10 nM throughout.
Regarding `CCc1c(F)ccc2cc(O)cc(-c3c(F)c4nc(OC[C@@]56CCCN5C[C@H](F)C6)nc(N5CCCOCC5)c4c4cn(C)nc34)c12` [Example 88, 5-ethyl-6-fluoro-4-[5-fluoro-2-methyl-9-(1,4-oxazepan-4-yl)-7-[[(2R,8S)-2-fluoro-1,2,3,5,6,7-hexahydropyrrolizin-8-yl]methoxy]pyrazolo[4,3-f]quinazolin-4-yl]naphthalen-2-ol], the concentration for half-maximal inhibition (IC50) against KRAS G12D and on KRAS WT was at most 10 nM each time.
For the compound `CCc1c(F)ccc2cc(O)cc(-c3cc4nc(OC[C@@]56CCCN5C[C@H](F)C6)nc(N5C6CCC5CN(CCCO)C6)c4c4cn(C)nc34)c12` [Example 89, 5-ethyl-6-fluoro-4-[7-[[(2R,8S)-2-fluoro-1,2,3,5,6,7-hexahydropyrrolizin-8-yl]methoxy]-9-[3-(3-hydroxypropyl)-3,8-diazabicyclo[3.2.1]octan-8-yl]-2-methyl-pyrazolo[4,3-f]quinazolin-4-yl]naphthalen-2-ol], the IC50 against KRAS G12D is at most 10 nM; against KRAS WT, 100 to 10000 nM.
For `Cn1cc2c(n1)c(-c1ccc(F)c3sc(N)c(C#N)c13)cc1nc(OC[C@@]34CCCN3C[C@H](F)C4)nc(N3C4CCC3CN(CCCO)C4)c12` [Example 90, 2-amino-7-fluoro-4-[7-[[(2R,8S)-2-fluoro-1,2,3,5,6,7-hexahydropyrrolizin-8-yl]methoxy]-9-[3-(3-hydroxypropyl)-3,8-diazabicyclo[3.2.1]octan-8-yl]-2-methyl-pyrazolo[4,3-f]quinazolin-4-yl]benzothiophene-3-carbonitrile], at KRAS G12D, the “KRAS^G12D NEA” value was “D (<49% inhibition at 10 μM)”. Moreover, the “KRAS^WT NEA” value on KRAS WT is on record as “D (<49% inhibition at 10 μM)”.
Regarding `CCc1c(F)ccc2cc(O)cc(-c3cc4nc(OC[C@@]56CCCN5C[C@H](F)C6)nc(N5CC6CCC(C5)N6CC(C)O)c4c4cn(C)nc34)c12` (stereo partly drawn) [Example 91, 5-ethyl-6-fluoro-4-[7-[[(2R,8S)-2-fluoro-1,2,3,5,6,7-hexahydropyrrolizin-8-yl]methoxy]-9-[3-(2-hydroxypropyl)-3,8-diazabicyclo[3.2.1]octan-8-yl]-2-methyl-pyrazolo[4,3-f]quinazolin-4-yl]naphthalen-2-ol], the IC50 against KRAS G12D was at most 10 nM; at KRAS WT, 100 to 10000 nM.
On the same counts, the results for `CCc1c(F)ccc2cc(O)cc(-c3c(F)c4nc(OC[C@@]56CCCN5C[C@H](F)C6)nc(N5CCOCC(C)(O)C5)c4c4cn(C)nc34)c12` (stereo partly drawn) [Example 92, 4-[4-(8-ethyl-7-fluoro-3-hydroxy-1-naphthyl)-5-fluoro-2-methyl-7-[[(2R,8S)-2-fluoro-1,2,3,5,6,7-hexahydropyrrolizin-8-yl]methoxy]pyrazolo[4,3-f]quinazolin-9-yl]-6-methyl-1,4-oxazepan-6-ol] are at most 10 nM and at most 10 nM.
On the same counts, the results for `C#Cc1c(F)ccc2cc(O)cc(-c3c(F)c4nc(OC[C@@]56CCCN5C[C@H](F)C6)nc(N5CCCn6nc(C(=O)N(C)C)cc6C5)c4c4cn(C)nc34)c12` [Example 93, 5-[4-(8-ethynyl-7-fluoro-3-hydroxy-1-naphthyl)-5-fluoro-2-methyl-7-[[(2R,8S)-2-fluoro-1,2,3,5,6,7-hexahydropyrrolizin-8-yl]methoxy]pyrazolo[4,3-f]quinazolin-9-yl]-N,N-dimethyl-4,6,7,8-tetrahydropyrazolo[1,5-a][1,4]diazepine-2-carboxamide] are at most 10 nM and at most 10 nM.
On the same counts, the results for `CCc1c(F)ccc2cc(O)cc(-c3cc4nc(OC[C@@]56CCCN5C[C@H](F)C6)nc(N5CCCn6nc(CO)cc6C5)c4c4cn(C)nc34)c12` [Example 94, 5-ethyl-6-fluoro-4-[9-[2-(hydroxymethyl)-4,6,7,8-tetrahydropyrazolo[1,5-a][1,4]diazepin-5-yl]-2-methyl-7-[[(2R,8S)-2-fluoro-1,2,3,5,6,7-hexahydropyrrolizin-8-yl]methoxy]pyrazolo[4,3-f]quinazolin-4-yl]naphthalen-2-ol] are at most 10 nM and at most 10 nM.
As to `CCc1c(F)ccc2cc(O)cc(-c3c(C)c4nc(OC[C@@]56CCCN5C[C@H](F)C6)nc(N5CCC[C@@](C)(O)C5)c4c4cn(C)nc34)c12` [Example 95, (3R)-1-[4-(8-ethyl-7-fluoro-3-hydroxy-1-naphthyl)-2,5-dimethyl-7-[[(2R,8S)-2-fluoro-1,2,3,5,6,7-hexahydropyrrolizin-8-yl]methoxy]pyrazolo[4,3-f]quinazolin-9-yl]-3-methyl-piperidin-3-ol], the IC50 against KRAS G12D and at KRAS WT was at most 10 nM throughout.
Consider `CCc1c(F)ccc2cc(O)cc(-c3c(C)c4nc(OC[C@@]56CCCN5C[C@H](F)C6)nc(N5CC6CCC(C5)N6)c4c4cn(C)nc34)c12` [Example 96, tert-butyl 3-[4-bromo-7-[[(2R,8S)-2-fluoro-1,2,3,5,6,7-hexahydropyrrolizin-8-yl]methoxy]-2,5-dimethyl-pyrazolo[4,3-f]quinazolin-9-yl]-3,8-diazabicyclo[3.2.1]octane-8-carboxylate], for which the concentration for half-maximal inhibition (IC50) on KRAS G12D and on KRAS WT was at most 10 nM each time.
Consider `C#Cc1c(F)ccc2cc(O)cc(-c3c(C)c4nc(OC[C@@]56CCCN5C[C@H](F)C6)nc(N5CCCn6nc(C(=O)N(C)C)cc6C5)c4c4cn(C)nc34)c12` [Example 97, 5-[4-(8-ethynyl-7-fluoro-3-hydroxy-1-naphthyl)-2,5-dimethyl-7-[[(2R,8S)-2-fluoro-1,2,3,5,6,7-hexahydropyrrolizin-8-yl]methoxy]pyrazolo[4,3-f]quinazolin-9-yl]-N,N-dimethyl-4,6,7,8-tetrahydropyrazolo[1,5-a][1,4]diazepine-2-carboxamide], for which the IC50 on KRAS G12D and against KRAS WT was at most 10 nM each time.

The values above are taken from patent publication US20260347364A1, “PYRAZOLO[4,3-F]QUINAZOLINE DERIVATIVES AS MODULATORS OF G12D MUTANT KRAS USEFUL FOR THE TREATMENT OF CANCER” (JAZZ PHARMACEUTICALS IRELAND LTD., priority 2023, published 2026).
